The structures appear in SMILES notation.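 Test compounds were applied to cells in 96-well plates for 48 hours at 5 doses. GI50 is the concentration that inhibits growth by half. TGI denotes the concentration required for complete inhibition of growth.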

Among the test systems are COLO 205 colon; OVCAR-3 ovarian; HCT-116 colon; SW-620 colon; A549 NSCLC; SK-MEL-2 melanoma; NCI-H522 lung; SF-268 CNS; HOP-92 NSCLC; MOLT-4 leukemia.
Common to all, as to assay: NCI-60 cell line screen, 48 h

Regarding `O=C1c2ccccc2-c2cc3ccccc3c(=O)n21`, the TGI with COLO 205 colon, in the assay with OVCAR-3 ovarian, with HCT-116 colon, in the assay with SW-620 colon, in the assay on A549 NSCLC and in the assay with SK-MEL-2 melanoma was > 100 µM in each case. For the same compound, the TGI in the assay with NCI-H522 lung and with SF-268 CNS was > 100 µM each time.

Consider `c1ccc(SCCCC(Sc2ccccc2)Sc2ccccc2)cc1`, for which the TGI in the assay on COLO 205 colon, with HOP-92 NSCLC, with OVCAR-3 ovarian, in the assay with HCT-116 colon, in the assay with SW-620 colon and with MOLT-4 leukemia was > 100 µM each time. For the same compound, the TGI with A549 NSCLC, in the assay with SK-MEL-2 melanoma and in the assay with SF-268 CNS was > 100 µM throughout.

Turning to `Cc1ccc(NCSc2ccc(Cl)cc2)cc1`, the GI50 with COLO 205 colon is 5.94 µM; with OVCAR-3 ovarian it was 9.22 µM; in the assay with HCT-116 colon, 55.4 µM; with SW-620 colon, > 100 µM; with MOLT-4 leukemia it was 6.15 µM; in the assay with A549 NSCLC it was 9.8 µM. Further, the GI50 was > 100 µM in the assay on SK-MEL-2 melanoma, 21.9 µM in the assay on NCI-H522 lung and 13.1 µM in the assay on SF-268 CNS. For the same compound, the TGI with COLO 205 colon, in the assay with OVCAR-3 ovarian, with HCT-116 colon, with SW-620 colon, in the assay with MOLT-4 leukemia and in the assay on A549 NSCLC was > 100 µM each time. Further, the TGI in the assay on SK-MEL-2 melanoma, in the assay with NCI-H522 lung and in the assay with SF-268 CNS was > 100 µM in each case.

As to `COC(=O)C12CC(C3CC31)C1CC12` (stereo unspecified), the TGI in the assay with COLO 205 colon, in the assay with HOP-92 NSCLC, with OVCAR-3 ovarian, in the assay on HCT-116 colon, with SW-620 colon and in the assay with MOLT-4 leukemia was > 100 µM throughout. Also, the TGI in the assay on A549 NSCLC and in the assay with SF-268 CNS was > 100 µM in each case.

Take `Cc1nn(-c2ccccc2)c2c1C1C(=C(c3ccc(Cl)cc3)N2)C(=O)Nc2ccccc21` (stereo unspecified): the GI50 is 2.49 µM in the assay on COLO 205 colon; 4.39 µM in the assay with OVCAR-3 ovarian; 3.55 µM with HCT-116 colon; 4.16 µM with SW-620 colon; 2.85 µM with MOLT-4 leukemia; 3.12 µM in the assay on A549 NSCLC. Also, the GI50 is 1.87 µM with SK-MEL-2 melanoma, 1.78 µM with NCI-H522 lung and 5.17 µM in the assay with SF-268 CNS. Also, the TGI in the assay on COLO 205 colon is 5.63 µM; with OVCAR-3 ovarian, 20.3 µM; in the assay with HCT-116 colon, 14.4 µM; in the assay with SW-620 colon it was > 100 µM; in the assay on MOLT-4 leukemia, 8.9 µM; in the assay with A549 NSCLC, > 100 µM. The TGI in the assay with SK-MEL-2 melanoma was 4.29 µM; in the assay on NCI-H522 lung it was 3.86 µM; in the assay with SF-268 CNS, > 100 µM.

For `Cc1ccc([P+](Cc2ccc([N+](=O)[O-])cc2)(c2ccc(C)cc2)c2ccc(C)cc2)cc1`, the GI50 with COLO 205 colon was 1.65 µM; in the assay on OVCAR-3 ovarian, 1.71 µM; in the assay on HCT-116 colon, 1.49 µM; in the assay with SW-620 colon, 3.07 µM; with MOLT-4 leukemia it was 5.97 µM; in the assay on A549 NSCLC it was 14.4 µM. Further, the GI50 in the assay on SK-MEL-2 melanoma is 1.96 µM; in the assay on NCI-H522 lung, 1.56 µM; in the assay with SF-268 CNS it was 3.45 µM. Moreover, the TGI in the assay with COLO 205 colon amounted to 3.95 µM; in the assay with OVCAR-3 ovarian, 7.07 µM; with HCT-116 colon it was 12 µM; with SW-620 colon, 15.4 µM; with MOLT-4 leukemia it was 29.3 µM; in the assay on A549 NSCLC, 57 µM. The TGI in the assay with SK-MEL-2 melanoma was found to be 4.51 µM; in the assay on NCI-H522 lung, 4.26 µM; with SF-268 CNS, 14 µM.

`CN1CC2(CCCCC2)C(O)C12C=CCCC2` (stereo unspecified): the TGI with COLO 205 colon, in the assay on OVCAR-3 ovarian, in the assay on SW-620 colon, with MOLT-4 leukemia, in the assay on A549 NSCLC and in the assay with SK-MEL-2 melanoma was > 100 µM throughout. The TGI in the assay on NCI-H522 lung and in the assay with SF-268 CNS was > 100 µM each time.

On to `O=C(Cc1nc2ccc(C(=O)c3ccccc3)cc2[nH]c1=O)C(=O)Nc1ccccc1[N+](=O)[O-]`, for which the TGI with HOP-92 NSCLC, with OVCAR-3 ovarian, with HCT-116 colon, with SW-620 colon, with A549 NSCLC and in the assay with SK-MEL-2 melanoma was > 100 µM each time. Besides, the TGI in the assay on NCI-H522 lung and in the assay on SF-268 CNS was > 100 µM each time.

Take `CCCCCCCCCCCCCCCC[N+]1(CC)CCCC1`: the GI50 was 0.291 µM in the assay with COLO 205 colon; 0.227 µM in the assay on HOP-92 NSCLC; 0.478 µM with OVCAR-3 ovarian; 0.361 µM with HCT-116 colon; 0.41 µM in the assay with SW-620 colon; 0.486 µM in the assay with MOLT-4 leukemia. Also, the GI50 was 1.07 µM in the assay on A549 NSCLC and 0.454 µM with SF-268 CNS. The TGI in the assay with COLO 205 colon is 0.731 µM; in the assay with HOP-92 NSCLC it was 1.33 µM; in the assay with OVCAR-3 ovarian, 1.65 µM; with HCT-116 colon it was 1.4 µM; in the assay with SW-620 colon, 1.65 µM; in the assay on MOLT-4 leukemia it was 2.19 µM. The TGI worked out at 2.59 µM in the assay with A549 NSCLC and 1.68 µM in the assay on SF-268 CNS.

As for `O=C(Oc1c(I)ccccc1=O)c1ccc([N+](=O)[O-])cc1`, the TGI is 27.8 µM with COLO 205 colon; 40.1 µM with OVCAR-3 ovarian; > 100 µM with HCT-116 colon; 83.6 µM in the assay on SW-620 colon; 63.2 µM in the assay with A549 NSCLC; 45.1 µM with SK-MEL-2 melanoma. The results for the TGI in the assay with NCI-H522 lung and in the assay on SF-268 CNS were 36.7 µM and 39.8 µM, respectively.

Regarding `O=C(OCc1ccccc1CN1CCOCC1)c1ccc(Br)cc1`, the TGI in the assay with COLO 205 colon was > 100 µM; with HOP-92 NSCLC it was > 100 µM; in the assay on OVCAR-3 ovarian it was 83.2 µM; with HCT-116 colon it was > 100 µM; in the assay on SW-620 colon it was > 100 µM; in the assay on A549 NSCLC it was > 100 µM. Also, the TGI with SK-MEL-2 melanoma, with NCI-H522 lung and in the assay on SF-268 CNS was > 100 µM in each case.

Turning to `CCC1OCCN1C(C)C` (stereo unspecified), the TGI in the assay on COLO 205 colon, in the assay with HCT-116 colon, in the assay on SW-620 colon, in the assay on MOLT-4 leukemia, in the assay with A549 NSCLC and in the assay on SK-MEL-2 melanoma was > 100 µM in each case. Besides, the TGI in the assay with NCI-H522 lung and in the assay with SF-268 CNS was > 100 µM throughout.
